Experiments:
[1] = system: human microvascular endothelial cells; experiment: in vitro model of wound healing, time for 50% wound to heal; format: cell-based
Source text: The time for wounds to heal by 50% under the various treatment conditions was quantified.

[2] = system: human umbilical vein endothelial cells (HUVEC); experiment: HUVEC cell migration / wound gap closure with or without 30 mM glucose pre-treatment; format: cell-based; conditions: for Time for 50% wound to heal: 24 hours incubation before wounding; for Healing Improvement (%): compared to untreated cells
Method: Additional wound studies were conducted using umbilical cord stem cells in addition to the use of hydroxytyrosol compositions and commercially-available OLIVAMINE® (compositions of hydroxytyrosol and oleuropein) compositions (20 μM hydroxytyrosol, 80 μM oleuropein, 2 mM N-acetylcysteine, 50 μM L-proline, 2 mM glycine and 100 μM taurine). These were evaluated with human umbilical vein endothelial cells (HUVEC) to assess impact on cell migration and wound healing.
HUVEC cells. Human umbilical vein endothelial cells are derived from the endothelium of veins from the umbilical cord (HUVEC primary cells purchased from Lonza). HUVECs have been widely used as a model system for the study of the regulation of endothelial cell function and the role of the endothelium in response of the blood vessel wall to stretch, shear forces and the development of atherosclerotic plaques and angiogenesis. For the following study, HUVECs are a primary endothelial cell line as a model system for the function and pathology of endothelial cells. We investigated improvement in cell proliferation and migration following treatment with OLIVAMINE® (compositions of hydroxytyrosol and oleuropein) composition.
In this study, HUVEC cells were pre-treated with or without 30 mM glucose for 3 days (72 hours). The cells were then equilibrated for a day (24 hours), and incubated with 50 μM hydroxytyrosol or OLIVAMINE® (compositions of hydroxytyrosol and oleuropein) formulation (20 μM hydroxytyrosol, 80 μM oleuropein, 2 mM N-acetylcysteine, 50 μM L-proline, 2 mM glycine and 100 μM taurine) for 24 hours before wounding.
Images were taken at intervals and the wound gap was quantified over time using IMAGE® analysis software. […] The distances measured are depicted in the Figures by the horizontal solid lines indicating the distance between the gaps of the wound. 100 measurements were taken per image and a mean gap distance was determined. As shown in FIGS. 7-8 the initial wound and 24 hour measurement are shown by the images, under both control (FIG. 7A) and high glucose (FIG. 8A). In addition the reduction in percentage of open wound is further shown graphically for the control (FIG. 7B) and high glucose (FIG. 8B) conditions. The time for 50% of the wound to heal was quantified as well as the percentage of improvement compared to untreated cells.

HMEC-1 cells = experiment: crystal violet cell viability assay; format: cell-based, human; conditions: 24 hours; HT 0-200 μM, OL 0-800 μM, Formulation 1 0-4×
Method: A crystal violet cell viability assay was performed to determine the cytotoxic effects of OLIVAMINE® (compositions of hydroxytyrosol and oleuropein) composition on HMEC-1 cells. Briefly, cells were seeded on a 24-well plate and treated for 24 h dose-titration concentrations of HT (0-200 μM), OL (0-800 μM), OLIVAMINE® (compositions of hydroxytyrosol and oleuropein) composition (McCord formulation 1, dilution factor=4×, Table 8). Following treatment, cells were washed twice with 0.9% saline and fixed with […] of 4% neutral formalin for 15-30 min. Cells were then stained with […] of 0.01% (w/v) crystal violet for 30 min, washed with dH2O and left to dry under a fume hood overnight. Cells were then lysed with […] of lysis buffer for 15 min on a rotating platform and the absorbance of each well was measured at the 560 nm wavelength using a microplate spectrophotometer.
To determine whether olive phenols influence cell proliferation, a crystal violet cell viability analysis was conducted. The relative cell viability of HMEC-1 cells was investigated. Cells were incubated with varying concentrations of HT (0-200 μM), OL (0-800 μM) and Formulation 1 (Table 8, 0-4×) 24 hours.

proliferative cells = experiment: induction or maintenance of a quiescent cell state; format: cell-based; conditions: evidence obtained to-date
Method: More specifically, when present at a concentration above a threshold level, hydroxytyrosol can induce proliferative cells into a quiescent state and help maintain cells in a pre-existing quiescent state. Based upon evidence obtained to-date, the threshold concentration is about 10 μM hydroxytyrosol.

[3] = Table 9, single ingredients, Present Art and Present Art without one ingredient

SMILES	Time for 50% wound to heal [1, 3]	effect on cell proliferation / viability (HMEC-1 cells)	Time for 50% wound to heal ([1]; Table 1)	further results
NCC(=O)O [Glycine]	20.73 h			
OCCc1ccc(O)c(O)c1 [Hydroxytyrosol]	19.25 h	no significantly effects on cell proliferation	19.25 h	Time for 50% wound to heal ([2]; High Glucose (30 mM, 72 hours)): 15.2 h; Healing Improvement (%) ([2]; High Glucose): 30%; Time for 50% wound to heal ([2]; no glucose pre-treatment): 19.7 h; Healing Improvement (%) ([2]; no glucose pre-treatment): 10%; less effective than the present art combination ([1]; hydroxytyrosol alone): 30%; threshold concentration for inducing or maintaining quiescence (proliferative cells): about 10 μM
NCCS(=O)(=O)O [L-Taurine]	22.5 h			
O=C(O)[C@@H]1CCCN1 [L-proline]	23.24 h			
CC(=O)N[C@@H](CS)C(=O)O [N-acetylcysteine, N-acetyl-L-cysteine, reference compound]	28.87 h		28.87 h	effect on time and extent of wound healing (in words) ([1]; compared to untreated or to single ingredients, absence and presence of glucose): increased the time to 50% healing compared to untreated
C/C=C1/[C@H](O[C@@H]2O[C@H](CO)[C@@H](O)[C@H](O)[C@H]2O)OC=C(C(=O)OC)[C@H]1CC(=O)OCCc1ccc(O)c(O)c1 [Oleuropein]	25.62 h	no significantly effects on cell proliferation	25.62 h	
